How the values were obtained:
[1] = test system: creatinine iminohydrolase; test: Creatinine iminohydrolase activity, Small-scale Enzyme Production (Procedure 2; GDH assay); format: cell-based, ATCC 31546 (tentatively Flavobacterium filamentosum); conditions: for growth of the culture and enzyme production (in words) / creatinine iminohydrolase yield of microbial cells (in words): carbon source; for growth of the culture and enzyme production (in words): Example 2; for Optimum Concentration (carbon source): concentration which produced the highest creatinine iminohydrolase activity, Table II; for optimum concentration: fumaric acid as carbon source and creatinine varied simultaneously, Example 3
Description: (§1) A fresh sample of culture grown for two days on Medium No. 1 slants as described in Procedure 1 above was obtained. From this slant, a loopful of culture was inoculated into 25 ml of a microbial growth medium of the type employed in the present invention contained in a 250 ml Erlenmeyer flask. The microbial growth medium employed consisted of Tryp-Soy Broth, referred to hereinabove. Following inoculation of the culture into the Erlenmeyer flask, the flask was shaken at 200 rpm at 30° C. for eight hours to produce good cellular growth without lysis of the microbial cells. Thereafter, a sample of the contents of the flask was microscopically inspected for culture purity and then aseptically centrifuged at 15,000 xg in a refrigerated centrifuge (available from DuPont Instruments, Newton, CT) for 15 minutes to separate the cells from the Tryp-Soy Broth. The supernatant containing the Tryp-Soy Broth was discarded, and the solid material containing the precipitated microbial cells was then re-suspendedin a volume of sterile distilled water equal to that present before centrifugation. 2 ml of this latter suspension was then used as an inoculum for a 250 ml Erlenmeyer flask containing 25 ml of a production medium to obtain further cell growth and to promote enzyme production by the microorganism. The specific composition of the production medium was varied as described in the following examples. However, in each case, once the microorganism was transferred as a 2-ml inoculum to the flask containing the particular production medium of interest, the flask was shaken at 30° C., 200 rpm for 10 hours. Thereafter, samples of the culture were withdrawn, diluted and dry-cell weight was determined. In addition, a 2.5 ml aliquot of the culture was centrifuged at 15,000 xg in a refrigerated centrifuge to separate the cells from the production medium. The supernatant containing the production medium was discarded. The precipitated cells were disrupted as in Procedure 4 below, and enzyme activity was assayed as described in Procedure 5 below.
(§2) 0.2 ml of an enzyme solution and 0.4 ml of cell suspension were added to 1.4 ml of 0.05 M tris(hydroxymethyl)aminomethane (tris) buffer, pH 8.5, and 10^-3 M (ethylenedinitrilo)tetraacetic acid, dipotassium salt (K2 EDTA). The aforementioned enzyme solution contained per ml of deionized water: 2.5 mg lysozyme, 1 mg bovine pancreatic deoxyribonuclease, and 1 mg bovine pancreatic ribonuclease. The amount of cell suspension was adjusted to give a final optical density of about 1.0, and the final volume was made to 2.0 ml with tris buffer. The suspension was shaken in a water bath at 37° C. for 20 minutes. The cell debris was removed by centrifugation at 27,000 xg in a refrigerated centrifuge, and the supernatant was assayed for enzyme activity as described in Procedure 5 below.
To determine the creatinine iminohydrolase activity described in the Examples, a L-glutamic dehydrogenase, "GDH", assay method was employed. In the GDH assay method, production of ammonia from creatinine, which represents the activity of a creatinine iminohydrolase enzyme preparation,is measured using NADPH (nicotinamide-adenine dinucleotride phosphate, reduced form) in a GDH-catalyzed reaction as follows:
Creatinine is hydrolyzed to ammonia via the unknown activity of a creatinine iminohydrolase sample, and the resultant ammonia reacts with the reagent α-ketoglutaric acid in the presence of GDH as catalyst to produce glutamic acid. The latter reaction catalyzed by GDH uses the NADPH oxidation reaction (NADPH→NADP), the disappearance of the NADPH absorption peak at 340 nm providing the spectroscopically detectable means for monitoring the assay. That is, the rate of NADPH disappearance measures the rate of glutamic acid production which, in turn, measures the rate of ammonia production.

microorganism ATCC 31546 [2] = test: Dry cell weight, Small-scale Enzyme Production (Procedure 2); format: cell-based, tentatively Flavobacterium filamentosum (ATCC 31546); conditions: Procedure No. 2; glucose 1.0 wt% added, or control 0.0 wt%
Description: as §1, with “The specific composition of the production medium was varied as described in the following examples. However, in each case, once the microorganism was transferred as a 2-ml inoculum to the flask containing the particular production medium of interest, the flask was shaken at 30° C., 200 rpm for 10 hours.” left out, “In addition, a 2.5 ml aliquot of the culture was centrifuged at 15,000 xg in a refrigerated centrifuge to separate the cells from the production medium. The supernatant containing the production medium was discarded. The precipitated cells were disrupted as in Procedure 4 below, and enzyme activity was assayed as described in Procedure 5 below.” left out

[3] = test system: creatinine iminohydrolase; test: Creatinine iminohydrolase activity, Large-scale Enzyme Production (Procedure 3; GDH assay); format: cell-based, ATCC 31546 (tentatively Flavobacterium filamentosum); conditions: Procedure No. 3; glucose 1.0 wt% added, or control 0.0 wt%
Description: as §2
To determine the creatinine iminohydrolase activity described in the Examples, a L-glutamic dehydrogenase, "GDH", assay method was employed. In the GDH assay method, production of ammonia from creatinine, which represents the activity of a creatinine iminohydrolase enzyme preparation,is measured using NADPH (nicotinamide-adenine dinucleotride phosphate, reduced form) in a GDH-catalyzed reaction as follows: […]

microorganism ATCC 31546 [4] = test: Dry cell weight / growth, Large-scale Enzyme Production (Procedure 3); format: cell-based, tentatively Flavobacterium filamentosum (ATCC 31546); conditions: Procedure No. 3; glucose 1.0 wt% added, or control 0.0 wt%
Description: Large-scale enzyme production was carried out using a 150-liter fermentor as follows:
First, following the same steps described in Procedure 2 above, a fresh sample of the microorganism ATCC 31546 culture which had been grown for two days on Medium No. 1 slants was transferred into 25 ml of microbial growth medium contained in a 250-ml Erlenmeyer flask. The microbial growth medium was the same as that described in Procedure 2 above. The first stage of inoculum growth in the microbial growth medium was carried out by shaking the flask at 200 rpm, 25° C. for 12 hours. A sample of the contents of the flask was thereafter microscopically inspected for culture purity. Thereafter, in the second stage of inoculum growth in the microbial growth medium, the contents of two 250-ml Erlenmeyer flasks containing first-stage culture were transferred aseptically to a 14-liter fermentor containing 10 liters of sterilized microbial growth medium having the composition described in Procedure 2 above and also containing 0.01 wt% of a polyglycol anti-foam agent sold under the tradename Polyglycol P-2000 by Dow Chemicals, Midland, MI. […] At this point, a sufficient quantity of cells was available to form an inoculum for the 150-liter fermentor. […] Dissolved oxygen concentration and pH were monitored continuously throughout the 12-hour period. […]

[5] = carbon source at optimum concentration, control 1.0 wt% fumaric acid

Compound | Creatinine Iminohydrolase Activity % of Control [1, 5] | growth of the culture and enzyme production (in words) [1] | Optimum Concentration (carbon source) [1] [Wt. %] | creatinine iminohydrolase yield of microbial cells (in words) [1] | also measured
O=C(O)CCC(=O)C(=O)O [Ketoglutaric Acid, α-Ketoglutaric acid] | 205 % of Control | good growth of the microorganism and produced more than twice as much enzyme as did the fumaric acid control | 1.0 |  | 
CC(O)C(=O)O (stereo not drawn) [Lactic Acid] | 8 % of Control | acceptable levels of microbial growth and enzyme production | 0.5 |  | 
OC[C@H]1OC(O)[C@H](O)[C@@H](O)[C@@H]1O (stereo partly drawn) [Glucose] | 51 % of Control | acceptable levels of microbial growth and enzyme production | 1.0 |  | Dry Cell Weight (microorganism ATCC 31546 [2]): 3.31 g/L; Creatinine Iminohydrolase Activity [3]: 720 U/liter; Creatinine Iminohydrolase Activity % of Control [3]: 134 % of Control; Creatinine Iminohydrolase Activity % of Control ([1]; Procedure No. 2, glucose 1.0 wt% added, or control 0.0 wt%): 135 % of Control; Dry Cell Weight (microorganism ATCC 31546 [4]): 3.92 g/L
CC(=O)O [Acetic Acid] |  | did not support the growth of the culture or produce a detectable amount of enzyme | 0.1 | yielding only small amounts of creatinine iminohydrolase | 
O=C(O)/C=C/C(=O)O [Fumaric Acid, Fumaric acid] | 100 % of Control | good enzyme production and good growth of the microorganism | 1.0 |  | optimum concentration [1]: 1.0%
O=C(O)CC(O)(CC(=O)O)C(=O)O [Citric Acid] | 71 % of Control | acceptable levels of microbial growth and enzyme production | 1.0 |  | 
NCC(=O)O [Glycine] |  | did not support the growth of the culture or produce a detectable amount of enzyme | 0.5 | yielding only small amounts of creatinine iminohydrolase | 
C[C@H](N)C(=O)O [Alanine] | 35 % of Control |  | 1.0 |  | 
N[C@@H](CCC(=O)O)C(=O)O [Glutamic Acid] |  | the culture grew well but these sources repressed enzyme synthesis | 1.0 | yielding only small amounts of creatinine iminohydrolase | 
CC(=O)C(=O)O [Pyruvic Acid] | 105 % of Control | supported good enzyme production although somewhat lower growth of the microorganism was obtained | 0.5 |  | 
OCC(O)CO [Glycerol] |  | did not support the growth of the culture or produce a detectable amount of enzyme | 0.5 | yielding only small amounts of creatinine iminohydrolase | 
OC[C@H]1O[C@@](CO)(O[C@H]2O[C@H](CO)[C@@H](O)[C@H](O)[C@H]2O)[C@@H](O)[C@@H]1O [Sucrose] |  | did not support the growth of the culture or produce a detectable amount of enzyme | 0.5 | yielding only small amounts of creatinine iminohydrolase | 
N[C@@H](CC(=O)O)C(=O)O [Aspartic Acid] |  | the culture grew well but these sources repressed enzyme synthesis | 1.0 | yielding only small amounts of creatinine iminohydrolase | 
CN1CC(=O)NC1=N [Creatinine] |  |  |  |  | optimum concentration [1]: 0.5%
O=C(O)CC(O)C(=O)O (stereo not drawn) [Malic Acid] | 100 % of Control | acceptable levels of microbial growth and enzyme production | 1.0 |  | 
O=C(O)CCC(=O)O [Succinic Acid] | 49 % of Control | acceptable levels of microbial growth and enzyme production | 1.0 |  | 

— patent US4275164A, “Process and nutrient medium for growing microorganism” (priority 1979, dated 1981)
